Results published in US12215129B2, “Antibacterial cyclopeptides targeting acinetobacter and other gram-negative pathogens” (priority 2020, dated 2025).
Starred links: 1 amine or outer side, 2 acyl side, 3 side chain; linkers in the order of their positions; H or OH if unused. Positions of bridges follow the written chain, without caps; N, C: chain ends. Non-standard residues stand in square brackets, D forms with d. Residues, ends and D or L forms follow the SMILES beside them. *: point of attachment. dAsp(3R-OH) = N[C@@H](C(=O)O)[C@@H](O)C(=O)O; X1 = NC[C@H](O)[C@@H](N[*:1])C(=O)[*:2]; X2 = CCC(C)(O)[C@H](N[*:1])C(=O)[*:2]; d(aIle) = CC[C@H](C)[C@@H](N)C(=O)O; Myristoyl = CCCCCCCCCCCCCC(=O)*; dOrn = NCCC[C@@H](N)C(=O)O; hSer = N[C@@H](CCO)C(=O)O

Tests used:
[1] = in vivo; settings: female, BALB/c, mouse
[2] = mouse, in vivo
[3] = iv, 5 mg/kg, Mean plasma concentration

CCCCCCCCCCCCCC(=O)N[C@H](CCCN)C(=O)N[C@@H](CO)C(=O)N[C@H](C(=O)N[C@@H](C(=O)N[C@@H](C(=O)N[C@@H]1C(=O)NCC(=O)N[C@@H](C(C)(O)CC)C(=O)N[C@H]([C@@H](C)CC)C(=O)N[C@@H](CCO)C(=O)N[C@@H](C)C(=O)N[C@H]([C@@H](C)CC)C(=O)N[C@@H](CCC(=O)O)C(=O)O[C@@H]1C)[C@@H](O)CN)[C@@H](O)C(=O)O)C(C)C (stereo partly drawn) [Compound 1, Turnercyclamycin A] (Myristoyl-[dOrn]SV[dAsp(3R-OH)][X1]TG[X2][d(aIle)][hSer]A[d(aIle)]E; ester 6-C) showed a clearance [1] of 0.29 mL/min/kg, an AUC(0-inf) ([1]; iv, 5 mg/kg) of 290 µg·h/mL and an AUC(0-t) ([1]; iv, 5 mg/kg) of 285 µg·h/mL. For the same molecule, the C0 ([1]; iv, 5 mg/kg) was 33700 ng/mL, the MRT ([1]; iv, 5 mg/kg) was 5.83 h and the Vd ([1]; iv, 5 mg/kg) was 0.1 L/kg. It also gave a clearance ([1]; iv, 5 mg/kg) of 0.29 mL/min/kg, a half-life ([1]; iv, 5 mg/kg) of 261 min and a level at 0.05 h [1, 3] of 53.3 µg/mL. The level at 0.167 h [1, 3] was 38600 ng/mL, the level at 0.5 h [1, 3] was 33700 ng/mL and the level at 1 h [1, 3] was 29300 ng/mL. The level at 2 h [1, 3] was 26200 ng/mL, the level at 4 h [1, 3] was 22500 ng/mL and the level at 8 h [1, 3] was 12000 ng/mL. For the same molecule, the level at 24 h [1, 3] was 931 ng/mL, the level at 0.5 h ([1]; iv, 5 mg/kg, Sample concentration in plasma (individual mouse)) was 34400 ng/mL and the “B.W. (g)” value [2] was “−”. The “Body Temperature” value [2] was “−”, the Convulsion [2] was “−” and the “Convulsion C.T.C-T” value [2] was “−”. For the same molecule, the “Dec. Exploration” value [2] was “−”, the “Dec. Palpebral” value [2] was “−” and the “Dec. Palpebral Size” value [2] was “−”. For the same molecule, the “Dec. Startle” value [2] was “−”, the “Dec. Startle Response” value [2] was “−” and the “Dec. Touch” value [2] was “−”. For the same molecule, the “Dec. Touch Response” value [2] was “−”, the Diarrhea [2] was “−” and the “Grip Strength” value [2] was “−”. For the same molecule, the Hyperactivity [2] was “−”, the “Inc. Exploration” value [2] was “−” and the “Inc. Palpebral Size” value [2] was “−”. The “Inc. Startle” value [2] was “−”, the Lacrimation [2] was “−” and the “Limb Tone” value [2] was “+”. For the same molecule, the Piloerection [2] was “±”, the Pinna [2] was “−” and the Placing [2] was “−”. The Righting [2] was “−”, the “Salivation F.V.” value [2] was “−” and the “Skin Color” value [2] was “−”. For the same molecule, the “Straub Tail” value [2] was “−”, the “adverse effects noted after the two administrations” value [2] was “decrease in adnominal tone, limb tone, and spontaneous activity, and tremor, piloerection, and increase in the respiration rate (fast)” and the “dose up to which well tolerated in mice” value [2] was “up to 50 mg/kg”. The “more pronounced adverse effects elicited” value [2] was “vocalization, ataxia, reactivity, and hunch back”.
